# Key:
# replicon cells = assay: Cytotoxicity MTS assay (CellTiter 96 Aqueous One Solution) in replicon cells; format: cell-based; conditions: EDU; read-out: CC50 (EDU) Range
# replicon cells (1b-Con1) = assay: Replicon activity assay (replicon RNA level by real-time RT-PCR, Taqman); format: cell-based; conditions: HCV replicon genotype 1b; read-out: EC50 (1b) Range
# Outline: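 HCV 1b-Con1 replicon cells treated 3 days with 10-point twofold serial dilutions in triplicate (0.5% DMSO, 10% FBS); replicon RNA quantified by Taqman real-time RT-PCR normalised to GAPDH, EC50 derived. Cytotoxicity by MTS read-out at day 3 on identically treated cells.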
Structure (SMILES),CC50 (replicon cells) [µM],EC50 (replicon cells (1b-Con1)) [µM]
CO[C@H](CCOP1(=O)OC[C@H]2O[C@@H](n3ccc(=O)[nH]c3=O)[C@](C)(Cl)[C@@H]2O1)C(=O)OC(C)C (some centres unmarked) [Compound 37B],> 50,≤ 0.25
"C#C[C@]1(C)[C@@H]2OP(=O)(OCC(C)CC(=O)OC(C)C)OC[C@H]2O[C@H]1n1ccc(=O)[nH]c1=O (single isomer, unassigned) [Compound 6A1]",> 50,> 10
"CC(C)OC(=O)C(C)CCOP1(=O)OC[C@H]2O[C@@H](n3ccc(=O)[nH]c3=O)[C@](C)(N)[C@@H]2O1 (single isomer, unassigned) [Compound 10B2]",> 50,> 10
"CC(CCOP1(=O)OC[C@H]2O[C@@H](n3ccc(=O)[nH]c3=O)[C@](C)(N)[C@@H]2O1)C(=O)OC1CCCC1 (single isomer, unassigned) [Compound 14A2]",> 50,> 10
C#C[C@]1(C)[C@@H]2O[P@@](=O)(OCC(CC(=O)OC(C)C)N(C)C(=O)OC(C)(C)C)OC[C@H]2O[C@H]1n1ccc(=O)[nH]c1=O (some centres unmarked) [Compound 74A2],> 50,> 10
C#C[C@@]1(O)[C@@H]2OP(=O)(OCCC(C)C(=O)OC(C)C)OC[C@H]2O[C@H]1n1ccc(=O)[nH]c1=O (some centres unmarked) [Compound 7B],> 50,≤ 0.25
"CC(C)OC(=O)C(C)CCOP1(=O)OC[C@H]2O[C@@H](n3ccc(=O)[nH]c3=O)[C@](C)(N)[C@@H]2O1 (single isomer, unassigned) [Compound 10B]",> 50,> 10
CC(C)OC(=O)C(CCOP1(=O)OC[C@H]2O[C@@H](n3ccc(=O)[nH]c3=O)[C@](C)(Cl)[C@@H]2O1)C(=O)OC(C)C (some centres unmarked) [Compound 38B],> 50,≤ 0.25
"C#C[C@@]1(O)[C@@H]2OP(=O)(OCC[C@@H](C)C(=O)OC(C)C)OC[C@H]2O[C@H]1n1ccc(=O)[nH]c1=O (single isomer, unassigned) [Compound 7B1]",> 50,0.25 to 1
"C#C[C@@]1(O)[C@@H]2OP(=O)(OCC[C@H](C)C(=O)OC(C)C)OC[C@H]2O[C@H]1n1ccc(=O)[nH]c1=O (single isomer, unassigned) [Compound 7B2]",> 50,1 to 10
CC(C)OC(=O)C(C)CCOP1(=O)OC[C@H]2O[C@@H](n3ccc(=O)[nH]c3=O)[C@](C)(Cl)[C@@H]2O1 (some centres unmarked) [Compound 39B],> 50,≤ 0.25
"C#C[C@]1(C)[C@@H]2OP(=O)(OCC(C)CC(=O)OC3CCCC3)OC[C@H]2O[C@H]1n1ccc(=O)[nH]c1=O (single isomer, unassigned) [Compound 3B]",> 50,≤ 0.25
"C#C[C@@]1(O)[C@@H]2OP(=O)(OCCC(C)C(=O)OC3CCCC3)OC[C@H]2O[C@H]1n1ccc(=O)[nH]c1=O (single isomer, unassigned) [Compound 8B]",> 50,≤ 0.25
"C#C[C@]1(C)[C@@H]2OP(=O)(OCC(C)CC(=O)OC(C)C)OC[C@H]2O[C@H]1n1ccc(=O)[nH]c1=O (single isomer, unassigned) [Compound 6A2]",> 50,> 10
"CC(C)OC(=O)[C@@H](C)CCOP1(=O)OC[C@H]2O[C@@H](n3ccc(=O)[nH]c3=O)[C@](C)(Cl)[C@@H]2O1 (single isomer, unassigned) [Compound 39B2]",> 50,0.25 to 1
"C#C[C@]1(C)[C@@H]2OP(=O)(OCCC(C(=O)OC(C)C)C(=O)OC(C)C)OC[C@H]2O[C@H]1n1ccc(=O)[nH]c1=O (single isomer, unassigned) [Compound 36B]",> 50,1 to 10
"CC(C)OC(=O)C(C)CCOP1(=O)OC[C@H]2O[C@@H](n3ccc(=O)[nH]c3=O)[C@](C)(N)[C@@H]2O1 (single isomer, unassigned) [Compound 10A2]",> 50,> 10
"C#C[C@@]1(O)[C@@H]2OP(=O)(OCCC(C)C(=O)OC3CCCC3)OC[C@H]2O[C@H]1n1ccc(=O)[nH]c1=O (single isomer, unassigned) [Compound 8A2]",> 50,≤ 0.25
"C#C[C@]1(C)[C@@H]2OP(=O)(OCC(C)CC(=O)OC(C)C)OC[C@H]2O[C@H]1n1ccc(=O)[nH]c1=O (single isomer, unassigned) [Compound 6B1]",> 50,1 to 10
"C#C[C@]1(C)[C@@H]2OP(=O)(OCC(C)CC(=O)OC(C)C)OC[C@H]2O[C@H]1n1ccc(=O)[nH]c1=O (single isomer, unassigned) [Compound 6B2]",> 50,1 to 10
"CC(C)OC(=O)[C@@H](C)CCOP1(=O)OC[C@H]2O[C@@H](n3cnc4c(N)ncnc43)[C@](C)(Cl)[C@@H]2O1 (single isomer, unassigned) [Compound 35B1]",> 50,≤ 0.25
"CC(C)OC(=O)C(C)CCOP1(=O)OC[C@H]2O[C@@H](n3cnc4c(N)ncnc43)[C@](C)(Cl)[C@@H]2O1 (single isomer, unassigned) [Compound 35B2]",> 50,≤ 0.25
